Where a name gives a salt, the structure may show the parent alone. Read-outs that look alike come from different tables or passages of the source.
Assays:
[1] = system: dogs; experiment: Haemodynamic tests on dogs anaesthetized with sodic pentobarbital (arterial pressure, cardiac frequency, coronary flow, cardiac contractile force); assay type: in vivo; details: dog; for change in vivo at 2.5 mg/kg / change in vivo at 0.625 mg/kg: Canis lupus familiaris, iv
Protocol: Tests were carried out on dogs anaesthetized with sodic pentobarbital (30 mg/kg/i.v.) and the compounds of formula (I) were administered intravenously. The activity on the cardiac contractile force was measured with a BRODIE and WALTON stress gauge fixed to the left ventricle.
The arterial pressure was measured at the femoral artery with a SANBORN pressure sensor.
The cardiac frequency was automatically counted by means of a cardiotachymeter from the pulse pressure wave.
The coronary flow was measured by means of an electromagnetic probe of the STATHAM or BIOTRONEX type at the coronary artery.

[2] = Acute toxicity in the mouse (MILLER and TAINTER method); details: in vivo; for LD50: read-out: LD 50 (mouse)
Protocol: The acute toxicity was assessed in accordance with the MILLER and TAINTER method (Proc. Sci. Exp. Biol. Med. 1944, 57, 261)

[3] = 2.5 mg/kg/i.v., read-out: Increase of the cardiac contractile force
[4] = 2.5 mg/kg/i.v., read-out: Increase of the coronary flow
[5] = 2.5 mg/kg/i.v., read-out: Variation of the average arterial pressure
[6] = 2.5 mg/kg/i.v., read-out: Variation of the cardiac frequency
[7] = 0.625 mg/kg/i.v., read-out: Increase of the cardiac contractile force
[8] = 0.625 mg/kg/i.v., read-out: Increase of the coronary flow
[9] = 0.625 mg/kg/i.v., read-out: Variation of the average arterial pressure
[10] = 0.625 mg/kg/i.v., read-out: Variation of the cardiac frequency
[11] = po, at 1000 mg/kg, read-out: LD 50 column: percentage in parentheses (p.o.)

COc1ccc(OC)c(C(=O)CN2CCN(C(=O)C=Cc3cc(OC)c(OC)c(OC)c3)CC2)c1 [Compound 70]
change in vivo at 2.5 mg/kg [1, 3]: 50%
change in vivo at 2.5 mg/kg [1, 4]: 27%
change in vivo at 2.5 mg/kg [1, 5]: -21%
change in vivo at 2.5 mg/kg [1, 6]: 5%
LD50 ([2]; iv): 168 mg/kg

COc1cc(C=CC(=O)N2CCN(CC(=O)c3ccc4ccccc4c3)CC2)cc(OC)c1OC [Compound 62]
change in vivo at 2.5 mg/kg [1, 3]: 43%
change in vivo at 2.5 mg/kg [1, 5]: -14%
change in vivo at 2.5 mg/kg [1, 6]: 4%
Increase of the cardiac contractile force: duration ([1]; 2.5 mg/kg/i.v.): > 30 mn
Variation of the average arterial pressure: duration ([1]; 2.5 mg/kg/i.v.): 10 mn
Variation of the cardiac frequency: duration ([1]; 2.5 mg/kg/i.v.): 5 mn
LD50 ([2]; iv): 45 mg/kg

COc1cc(C=CC(=O)N2CCN(CCc3cccc(O)c3)CC2)cc(OC)c1OC [Compound 3]
change in vivo at 0.625 mg/kg [1, 7]: 47%
change in vivo at 0.625 mg/kg [1, 8]: 26%
change in vivo at 0.625 mg/kg [1, 9]: -9%
change in vivo at 0.625 mg/kg [1, 10]: 0%
change in vivo at 2.5 mg/kg [1, 3]: 62%
change in vivo at 2.5 mg/kg [1, 4]: 62%
change in vivo at 2.5 mg/kg [1, 5]: -36%
change in vivo at 2.5 mg/kg [1, 6]: 7%
Increase of the cardiac contractile force: duration ([1]; 0.625 mg/kg/i.v.): 30 mn
Increase of the coronary flow: duration ([1]; 0.625 mg/kg/i.v.): 5 mn
Variation of the average arterial pressure: duration ([1]; 2.5 mg/kg/i.v.): > 30 mn
LD50 ([2]; iv): > 200 mg/kg

COc1ccc(OC)c(C(O)CN2CCN(C(=O)C=Cc3cc(OC)c(OC)c(OC)c3)CC2)c1 (stereo not shown) [Compound 90]
change in vivo at 2.5 mg/kg [1, 3]: 42%
change in vivo at 2.5 mg/kg [1, 4]: 15%
change in vivo at 2.5 mg/kg [1, 5]: -11%
change in vivo at 2.5 mg/kg [1, 6]: 0%
mortality [2, 11]: 80%

COc1cc(C=CC(=O)N2CCN(Cc3ccc(NC(C)=O)cc3)CC2)cc(OC)c1OC [Compound 41]
change in vivo at 2.5 mg/kg [1, 3]: 35%
change in vivo at 2.5 mg/kg [1, 5]: -36%
change in vivo at 2.5 mg/kg [1, 6]: -16%
LD50 ([2]; iv): > 200 mg/kg

COc1cc(C=CC(=O)N2CCN(CC(=O)c3ccc(OC)c4c3OCCO4)CC2)cc(OC)c1OC [Compound 10]
change in vivo at 0.625 mg/kg [1, 7]: 9%
change in vivo at 0.625 mg/kg [1, 8]: 39%
change in vivo at 0.625 mg/kg [1, 9]: -7%
change in vivo at 0.625 mg/kg [1, 10]: 2%
change in vivo at 2.5 mg/kg [1, 3]: 53%
change in vivo at 2.5 mg/kg [1, 4]: 46%
change in vivo at 2.5 mg/kg [1, 5]: -16%
change in vivo at 2.5 mg/kg [1, 6]: 12%
Increase of the cardiac contractile force: duration ([1]; 0.625 mg/kg/i.v.): < 10 mn
Variation of the average arterial pressure: duration ([1]; 0.625 mg/kg/i.v.): < 5 mn
Variation of the cardiac frequency: duration ([1]; 0.625 mg/kg/i.v.): < 5 mn
Increase of the cardiac contractile force: duration ([1]; 2.5 mg/kg/i.v.): 10 mn
Variation of the average arterial pressure: duration ([1]; 2.5 mg/kg/i.v.): > 30 mn
Variation of the cardiac frequency: duration ([1]; 2.5 mg/kg/i.v.): > 30 mn
LD50 ([2]; iv): 180 mg/kg

COc1ccc(C(O)CN2CCN(C(=O)C=Cc3cc(OC)c(OC)c(OC)c3)CC2)c(OC)c1 (stereo not shown) [Compound 89]
change in vivo at 2.5 mg/kg [1, 3]: 51%
change in vivo at 2.5 mg/kg [1, 5]: -38%
change in vivo at 2.5 mg/kg [1, 6]: -10%
Variation of the average arterial pressure: duration ([1]; 2.5 mg/kg/i.v.): > 30 mn
LD50 ([2]; iv): > 100 mg/kg

COc1ccc(CC(O)CN2CCN(C(=O)C=Cc3cc(OC)c(OC)c(OC)c3)CC2)cc1OC (stereo not shown) [Compound 102, 3-[4-(3,4,5-trimethoxycinnamoyl) 1-piperazinyl]1-(3,4-dimethoxy)phenyl 2-propanol hydrochloride hydrate]
change in vivo at 2.5 mg/kg [1, 3]: 13%
change in vivo at 2.5 mg/kg [1, 4]: 34%
change in vivo at 2.5 mg/kg [1, 5]: -26%
change in vivo at 2.5 mg/kg [1, 6]: -4%
Increase of the cardiac contractile force: duration ([1]; 2.5 mg/kg/i.v.): 10 mn
Variation of the average arterial pressure: duration ([1]; 2.5 mg/kg/i.v.): > 30 mn
LD50 ([2]; iv): > 200 mg/kg

CNC(=O)Nc1ccc(C(O)CN2CCN(C(=O)C=Cc3cc(OC)c(OC)c(OC)c3)CC2)cc1 (stereo not shown) [Compound 95]
change in vivo at 2.5 mg/kg [1, 3]: 21%
change in vivo at 2.5 mg/kg [1, 4]: 27%
change in vivo at 2.5 mg/kg [1, 5]: -20%
change in vivo at 2.5 mg/kg [1, 6]: 8%
Increase of the cardiac contractile force: duration ([1]; 2.5 mg/kg/i.v.): 10 mn
LD50 ([2]; iv): > 200 mg/kg

COc1cc(C=CC(=O)N2CCN(CCc3c[nH]c4ccccc34)CC2)cc(OC)c1OC [Compound 105]
change in vivo at 2.5 mg/kg [1, 3]: 17%
change in vivo at 2.5 mg/kg [1, 4]: 55%
change in vivo at 2.5 mg/kg [1, 5]: -34%
change in vivo at 2.5 mg/kg [1, 6]: 0%
Variation of the average arterial pressure: duration ([1]; 2.5 mg/kg/i.v.): > 30 mn
LD50 ([2]; iv): > 200 mg/kg

CNC(=O)Nc1ccc(CCN2CCN(C(=O)C=Cc3cc(OC)c(OC)c(OC)c3)CC2)cc1 [Compound 54]
change in vivo at 2.5 mg/kg [1, 3]: 48%
change in vivo at 2.5 mg/kg [1, 4]: 181%
change in vivo at 2.5 mg/kg [1, 5]: -9%
change in vivo at 2.5 mg/kg [1, 6]: 4%
LD50 ([2]; iv): > 200 mg/kg

COc1cc(C=CC(=O)N2CCN(C3CCc4cc(O)c(O)cc4C3)CC2)cc(OC)c1OC (stereo not shown) [Compound 108, 2-[4-(3,4,5-trimethoxycinnamoyl) 1-piperazinyl] 1,2,3,4-tetrahydro 6,7-dihydroxy naphthyl hydrate]
change in vivo at 2.5 mg/kg [1, 3]: 44%
change in vivo at 2.5 mg/kg [1, 4]: 29%
change in vivo at 2.5 mg/kg [1, 5]: -20%
change in vivo at 2.5 mg/kg [1, 6]: 3%
Variation of the average arterial pressure: duration ([1]; 2.5 mg/kg/i.v.): > 30 mn
mortality ([2]; iv, at 200 mg/kg, read-out: LD 50 column: percentage in parentheses): 20%
LD50 ([2]; iv): 200 mg/kg

COc1cc(C=CC(=O)N2CCN(CC(=O)c3ccc(OC)c(OC)c3OC)CC2)cc(OC)c1OC [Compound 7]
change in vivo at 0.625 mg/kg [1, 7]: 69%
change in vivo at 0.625 mg/kg [1, 8]: 277%
change in vivo at 0.625 mg/kg [1, 9]: -22%
change in vivo at 0.625 mg/kg [1, 10]: -2 to 15%
change in vivo at 2.5 mg/kg [1, 3]: 51%
change in vivo at 2.5 mg/kg [1, 4]: 416%
change in vivo at 2.5 mg/kg [1, 5]: -35%
change in vivo at 2.5 mg/kg [1, 6]: -8 to 9%
Increase of the coronary flow: duration ([1]; 0.625 mg/kg/i.v.): < 5 mn
Increase of the cardiac contractile force: duration ([1]; 2.5 mg/kg/i.v.): < 10 mn
Increase of the coronary flow: duration ([1]; 2.5 mg/kg/i.v.): < 20 mn
mortality [2, 11]: 0%

COc1ccc(CN2CCN(C(=O)C=Cc3cc(OC)c(OC)c(OC)c3)CC2)cc1OC [Compound 2]
change in vivo at 0.625 mg/kg [1, 7]: 71%
change in vivo at 0.625 mg/kg [1, 8]: 93%
change in vivo at 0.625 mg/kg [1, 9]: -12%
change in vivo at 0.625 mg/kg [1, 10]: 6%
change in vivo at 2.5 mg/kg [1, 4]: 76 to 398%
change in vivo at 2.5 mg/kg [1, 5]: -25%
change in vivo at 2.5 mg/kg [1, 6]: 8%
Increase of the coronary flow: duration ([1]; 0.625 mg/kg/i.v.): < 20 mn
Variation of the cardiac frequency: duration ([1]; 0.625 mg/kg/i.v.): < 5 mn
Increase of the cardiac contractile force ([1]; 2.5 mg/kg/i.v.): +58 to
Increase of the cardiac contractile force: duration ([1]; 2.5 mg/kg/i.v.): > 308 mn
Increase of the coronary flow: duration ([1]; 2.5 mg/kg/i.v.): > 30 mn
LD50 ([2]; iv): 105 mg/kg

— US4368199A, “Novel derivatives of 3,4,5-trimethoxy cinnamoyl piperazine, their salts, the process for preparing the same and their application in therapeutics” (Delalande S.A., priority 1980, dated 1983)
